{"source": "paper PMC3666173", "about": "(Basic research in cardiology, 2012)", "key": {"[1]": {"test_system": "C6-Cx43 cells", "conditions": "A23187 2.2 μM, 5 min; ref [19], [49]; cited from earlier work"}, "[2]": {"biological_target": "Cx43 hemichannels (C6-Cx43 cells) (Homo sapiens, UniProt P17302)", "sequence (P17302 whole entry)": "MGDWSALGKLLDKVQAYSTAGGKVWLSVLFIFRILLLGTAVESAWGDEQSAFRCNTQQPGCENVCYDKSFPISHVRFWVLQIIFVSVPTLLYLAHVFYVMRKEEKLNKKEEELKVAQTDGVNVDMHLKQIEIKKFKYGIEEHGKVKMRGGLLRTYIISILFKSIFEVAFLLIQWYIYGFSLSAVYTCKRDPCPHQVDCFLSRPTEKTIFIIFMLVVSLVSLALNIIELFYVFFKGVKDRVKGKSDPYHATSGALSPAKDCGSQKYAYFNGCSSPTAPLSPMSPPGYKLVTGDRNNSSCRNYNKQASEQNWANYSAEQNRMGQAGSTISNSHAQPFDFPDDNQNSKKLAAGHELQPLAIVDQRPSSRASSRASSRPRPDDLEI", "experiment": "[Ca2+]i-triggered", "format": "cell-based"}, "[3]": {"test_system": "pannexin-1 (Panx1) hemichannels (C6-Panx1 cells)", "experiment": "High [K+]e-triggered ATP release in C6-Panx1 cells", "format": "cell-based", "conditions": "[K+]e = 143 mM, carbenoxolone 10 μM, 30 min, 10Panx1 200 μM"}}, "note": "No end group written: not given here.", "data": [{"compound": "CNc1ccc2oc(C[C@H]3O[C@@]4(CC[C@H]3C)O[C@H]([C@H](C)C(=O)c3ccc[nH]3)[C@H](C)C[C@H]4C)nc2c1C(=O)O", "note": "[A23187]", "values": [{"measurement": "transient elevation of [Ca2+]i", "setting": "[1]", "value": "~ 500 nM"}, {"measurement": "[Ca2+]i-triggered ATP release", "setting": "[2]; Ca2+ ionophore, 2.2 μM, 5 min, C6-Cx43 vs C6-pLTR, n = 12", "value": "triggered significant ATP release in C6-Cx43 but not in C6 cells stably transfected with the empty vector"}]}, {"compound": "YGRKKRRQRRRKQIEIKKFK", "values": [{"measurement": "IC50", "setting": "[2]", "value": "~7", "unit": "µM"}]}, {"compound": "CC1(C)[C@@H](OC(=O)CCC(=O)O)CC[C@]2(C)[C@H]3C(=O)C=C4[C@@H]5C[C@@](C)(C(=O)O)CC[C@]5(C)CC[C@@]4(C)[C@]3(C)CC[C@@H]12", "note": "[carbenoxolone]", "values": [{"measurement": "high [K+]e-triggered ATP release", "setting": "[3]; n = 12", "value": "suppressed"}, {"measurement": "high [K+]e-triggered ATP release", "setting": "[3]; n = 12, listed as Cbx", "value": "blocked"}]}]}
